Tests used:
PC-3 = assay: Anti-proliferative activity against human PC3 cells measured after 96 hrs by MTT assay; assay type: functional; conditions: PC-3, 96 h
LNCaP = assay: Anti-proliferative activity against human LNCAP cells measured after 96 hrs by MTT assay; assay type: functional
[1] = target: Peptidyl-prolyl cis-trans isomerase NIMA-interacting 1 (Homo sapiens, UniProt Q13526); assay: Inhibition of Pin1 (unknown origin) using Suc-Ala-Glu-cis-Pro-Phe-4-nitroanilide as substrate preincubated for 30 mins followed by substrate addition measured for 90 secs by protease-enzyme coupled assay
Peptidyl-prolyl cis-trans isomerase NIMA-interacting 1, sequence (Q13526 whole entry): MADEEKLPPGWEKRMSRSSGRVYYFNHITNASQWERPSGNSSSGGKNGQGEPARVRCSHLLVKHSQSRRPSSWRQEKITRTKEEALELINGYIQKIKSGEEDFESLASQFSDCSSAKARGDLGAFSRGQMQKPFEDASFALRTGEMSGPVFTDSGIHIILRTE

Row | Compound | GI50 (PC-3) [µM] | GI50 (LNCaP) [µM] | IC50 [1] [µM]
1 | C[C@H]1[C@H](C)CC[C@]2(C)CC[C@]3(C)C(=CC(=O)[C@@H]4[C@@]5(C)C=C(I)C(=O)[C@](C)(C(=O)N6CCC(N7CCCCC7)CC6)[C@@H]5CC[C@]43C)[C@H]12 | 4.22 | 3.59 | 
2 | C[C@H]1[C@H](C)CC[C@]2(C)CC[C@]3(C)C(=CC(=O)[C@@H]4[C@@]5(C)C=C(C(F)(F)F)C(=O)[C@](C)(C(=O)N6CCCC6)[C@@H]5CC[C@]43C)[C@H]12 | 2.64 | 3.29 | 
3 | COC(=O)[C@@]1(C)C(=O)C=C[C@]2(C)[C@H]3C(=O)C=C4[C@@H]5[C@@H](C)[C@H](C)CC[C@]5(C)CC[C@@]4(C)[C@]3(C)CC[C@@H]12 | > 12.5 | > 12.5 | 
4 | C[C@H]1[C@H](C)CC[C@]2(C)CC[C@]3(C)C(=CC(=O)[C@@H]4[C@@]5(C)C=C(I)C(=O)[C@](C)(C(=O)OCc6ccccc6)[C@@H]5CC[C@]43C)[C@H]12 | > 12.5 | > 12.5 | 
5 | C[C@H]1[C@H](C)CC[C@]2(C)CC[C@]3(C)C(=CC(=O)[C@@H]4[C@@]5(C)C=C(C#N)C(=O)[C@](C)(C(=O)O)[C@@H]5CC[C@]43C)[C@H]12 | 0.18 | 0.7 | 
6 | CC1CCN(C(=O)[C@@]2(C)C(=O)C(C#N)=C[C@]3(C)[C@H]4C(=O)C=C5[C@@H]6[C@@H](C)[C@H](C)CC[C@]6(C)CC[C@@]5(C)[C@]4(C)CC[C@@H]23)CC1 | 2.07 | 3.82 | 
7 | COC(=O)[C@@]1(C)C(=O)C(C#N)=C[C@]2(C)[C@H]3C(=O)C=C4[C@@H]5[C@@H](C)[C@H](C)CC[C@]5(C)CC[C@@]4(C)[C@]3(C)CC[C@@H]12 | 1.2 | 2.34 | 
8 | C[C@H]1[C@H](C)CC[C@]2(C)CC[C@]3(C)C(=CC(=O)[C@@H]4[C@@]5(C)C=C(I)C(=O)[C@](C)(C(=O)N6CCCCC6)[C@@H]5CC[C@]43C)[C@H]12 | > 12.5 | > 12.5 | 
9 | C[C@H]1[C@H](C)CC[C@]2(C)CC[C@]3(C)C(=CC(=O)[C@@H]4[C@@]5(C)C=C(C#N)C(=O)[C@](C)(C(=O)N6CCC(N7CCCCC7)CC6)[C@@H]5CC[C@]43C)[C@H]12 | 0.13 | 0.67 | 
10 | C[C@H]1[C@H](C)CC[C@]2(C)CC[C@]3(C)C(=CC(=O)[C@@H]4[C@@]5(C)C=C(C(F)(F)F)C(=O)[C@](C)(C(=O)OCc6ccccc6)[C@@H]5CC[C@]43C)[C@H]12 | 5.11 | 3.92 | 
11 | C[C@H]1[C@H](C)CC[C@]2(C)CC[C@]3(C)C(=CC(=O)[C@@H]4[C@@]5(C)C=C(C(F)(F)F)C(=O)[C@](C)(C(=O)N6CCCCC6)[C@@H]5CC[C@]43C)[C@H]12 | 3.27 | 3.21 | 
12 | CC1CCN(C(=O)[C@@]2(C)C(=O)C(C(F)(F)F)=C[C@]3(C)[C@H]4C(=O)C=C5[C@@H]6[C@@H](C)[C@H](C)CC[C@]6(C)CC[C@@]5(C)[C@]4(C)CC[C@@H]23)CC1 | 2.48 | 4.71 | 
13 | C[C@H]1[C@H](C)CC[C@]2(C)CC[C@]3(C)C(=CC(=O)[C@@H]4[C@@]5(C)C=C(C(F)(F)F)C(=O)[C@](C)(C(=O)N6CCNCC6)[C@@H]5CC[C@]43C)[C@H]12 | 1.07 | 2.18 | 9.6
14 | CC1CCN(C(=O)[C@@]2(C)C(=O)C(I)=C[C@]3(C)[C@H]4C(=O)C=C5[C@@H]6[C@@H](C)[C@H](C)CC[C@]6(C)CC[C@@]5(C)[C@]4(C)CC[C@@H]23)CC1 | > 12.5 | > 12.5 | 
15 | C[C@H]1[C@H](C)CC[C@]2(C)CC[C@]3(C)C(=CC(=O)[C@@H]4[C@@]5(C)C=C(I)C(=O)[C@](C)(C(=O)N6CCCC6)[C@@H]5CC[C@]43C)[C@H]12 | > 12.5 | > 12.5 | 
16 | COC(=O)[C@@]1(C)C(=O)C(C(F)(F)F)=C[C@]2(C)[C@H]3C(=O)C=C4[C@@H]5[C@@H](C)[C@H](C)CC[C@]5(C)CC[C@@]4(C)[C@]3(C)CC[C@@H]12 | 3.78 | 7.82 | 
17 | C[C@H]1[C@H](C)CC[C@]2(C)CC[C@]3(C)C(=CC(=O)[C@@H]4[C@@]5(C)C=C(I)C(=O)[C@](C)(C(=O)N6CCNCC6)[C@@H]5CC[C@]43C)[C@H]12 | 3.36 | 2.98 | 4.29
18 | C[C@H]1[C@H](C)CC[C@]2(C)CC[C@]3(C)C(=CC(=O)[C@@H]4[C@@]5(C)C=C(I)C(=O)[C@](C)(C(=O)O)[C@@H]5CC[C@]43C)[C@H]12 | 4.65 | 3.78 | 
19 | C[C@H]1[C@H](C)CC[C@]2(C)CC[C@]3(C)C(=CC(=O)[C@@H]4[C@@]5(C)C=C(C(F)(F)F)C(=O)[C@](C)(C(=O)O)[C@@H]5CC[C@]43C)[C@H]12 | 4.38 | 4.26 | 
20 | C[C@H]1[C@H](C)CC[C@]2(C)CC[C@]3(C)C(=CC(=O)[C@@H]4[C@@]5(C)C=C(C(F)(F)F)C(=O)[C@](C)(C(=O)N6CCC(N7CCCCC7)CC6)[C@@H]5CC[C@]43C)[C@H]12 | 1.43 | 1.79 | 
21 | C[C@H]1[C@H](C)CC[C@]2(C)CC[C@]3(C)C(=CC(=O)[C@@H]4[C@@]5(C)C=CC(=O)[C@](C)(C(=O)OCc6ccccc6)[C@@H]5CC[C@]43C)[C@H]12 | > 12.5 | > 12.5 | 
22 | C[C@H]1[C@H](C)CC[C@]2(C)CC[C@]3(C)C(=CC(=O)[C@@H]4[C@@]5(C)C=C(C#N)C(=O)[C@](C)(C(=O)N6CCCC6)[C@@H]5CC[C@]43C)[C@H]12 | 3.76 | 5.37 | 
23 | CC(=O)O[C@@H]1CC[C@@]2(C)[C@@H](CC[C@]3(C)[C@@H]2C(=O)C=C2[C@@H]4[C@@H](C)[C@H](C)CC[C@]4(C)CC[C@]23C)[C@@]1(C)C(=O)O [AKBA] | 31.9 | 27.4 | 53
24 | C[C@H]1[C@H](C)CC[C@]2(C)CC[C@]3(C)C(=CC(=O)[C@@H]4[C@@]5(C)C=C(C#N)C(=O)[C@](C)(C(=O)N6CCCCC6)[C@@H]5CC[C@]43C)[C@H]12 | 2.89 | 1.14 | 
25 | COC(=O)[C@@]1(C)C(=O)C(I)=C[C@]2(C)[C@H]3C(=O)C=C4[C@@H]5[C@@H](C)[C@H](C)CC[C@]5(C)CC[C@@]4(C)[C@]3(C)CC[C@@H]12 | > 12.5 | > 12.5 | 
26 | C[C@H]1[C@H](C)CC[C@]2(C)CC[C@]3(C)C(=CC(=O)[C@@H]4[C@@]5(C)C=C(C#N)C(=O)[C@](C)(C(=O)OCc6ccccc6)[C@@H]5CC[C@]43C)[C@H]12 | 0.45 | 1.66 | 

From ChEMBL document CHEMBL4000186, “Design and synthesis of novel 2-substituted 11-keto-boswellic acid heterocyclic derivatives as anti-prostate cancer agents with Pin1 inhibition ability” (Eur J Med Chem, 2017)
